Values quoted from earlier work as cited in patent US4337247A, “Tetrapeptidesemicarbazide derivatives and their production and use” (Takeda Chemical Industries, Ltd., priority 1979, dated 1982).

Settings: for analgesic effect: intravenous route; for morphinomimetic activity: direct intracerebral administration

β-endorphine (YGGFMTSEKSQTPLVTLFKNAIIKNAYKKGE; Beta-endorphin; UniProt P01189 237-267, looked up) [polypeptide consisting of 31 amino acids, considered to be derived from the carboxy-terminal of β-lipotrophine]
analgesic effect: displays an overt analgesic action

H-Tyr-Gly-Gly-Phe-Leu-OH
morphinomimetic activity: show morphinomimetic activity | analgesic effect: do not produce analgesic effects

H-Tyr-Gly-Gly-Phe-Met-OH (H-YGGFM-OH) [enkephalin, pentapeptide isolated from the pig brain]
morphinomimetic activity: show morphinomimetic activity | analgesic effect: do not produce analgesic effects
